According to patent publication US7230011B2, “Benzenesulfonic acid indol-5-yl esters as antagonists of the 5ht6 receptor” (Eli Lilly and Company, priority 2002, dated 2007):
Counter-ions that a name gives are not always drawn.

tested on: not given; conditions: not given

Row | Structure (SMILES) | melting point
1 | CN1CCC(c2cn(CCCc3ccccc3)c3ccc(OS(=O)(=O)c4ccccc4)cc23)CC1.O=C(O)C(=O)O | 188 to 191 °C
2 | CCCS(=O)(=O)n1cc(C2CCN(C)CC2)c2cc(OS(=O)(=O)c3ccccc3)ccc21.O=C(O)C(=O)O | 139 to 142 °C
3 | CC(C)S(=O)(=O)n1cc(C2CCN(C)CC2)c2cc(OS(=O)(=O)c3ccccc3)ccc21.O=C(O)C(=O)O | 134 to 138 °C
4 | CCS(=O)(=O)n1cc(C2CCN(C)CC2)c2cc(OS(=O)(=O)c3ccccc3)ccc21.O=C(O)C(=O)O | 121 to 126 °C
5 | CN1CCC(c2cn(S(C)(=O)=O)c3ccc(OS(=O)(=O)c4ccccc4)cc23)CC1.O=C(O)C(=O)O | 95 to 99 °C
6 | CN1CCC(c2cn(S(=O)(=O)Cc3ccccc3)c3ccc(OS(=O)(=O)c4ccccc4)cc23)CC1.O=C(O)C(=O)O | 120 to 124 °C
7 | CN1CCC(c2cn(S(=O)(=O)c3cccc4ccccc34)c3ccc(OS(=O)(=O)c4ccccc4)cc23)CC1.O=C(O)C(=O)O | 121 to 125 °C
8 | CCCCn1cc(C2CCN(C)CC2)c2cc(OS(=O)(=O)c3ccccc3)ccc21.O=C(O)C(=O)O | 193 to 198 °C
9 | CN1CCC(c2cn(Cc3ccc(F)cc3)c3ccc(OS(=O)(=O)c4ccccc4)cc23)CC1.O=C(O)C(=O)O | 181 to 184 °C
10 | CN1CCC(c2cn(Cc3ccc(F)cc3F)c3ccc(OS(=O)(=O)c4ccccc4)cc23)CC1.O=C(O)C(=O)O | 141 to 144 °C
11 | CN1CCC(c2cn(Cc3ccccc3)c3ccc(OS(=O)(=O)c4ccccc4)cc23)CC1.Cl | 227 to 230 °C
12 | CN1CCC(c2cn(Cc3cccc(F)c3)c3ccc(OS(=O)(=O)c4ccccc4)cc23)CC1.Cl | 103 to 105 °C
13 | CC(C)Cn1cc(C2CCN(C)CC2)c2cc(OS(=O)(=O)c3ccccc3)ccc21.Cl | 188 to 191 °C
14 | CN1CCC(c2cn(CCCCc3ccccc3)c3ccc(OS(=O)(=O)c4ccccc4)cc23)CC1.Cl | 158 to 161 °C
15 | CC(C)n1cc(C2CCN(C)CC2)c2cc(OS(=O)(=O)c3ccccc3)ccc21.O=C(O)C(=O)O | 103 to 107 °C
16 | CN1CCC(c2cn(C3CCCC3)c3ccc(OS(=O)(=O)c4ccccc4)cc23)CC1.O=C(O)C(=O)O | 202 to 205 °C
17 | CCCCn1cc(C2CCN(C)CC2)c2cc(OS(=O)(=O)c3ccccc3)ccc21.Cl | 169 to 172 °C
18 | CN1CCC(c2cn(Cc3ccc(F)cc3)c3ccc(OS(=O)(=O)c4ccccc4)cc23)CC1.Cl | 169 to 172 °C
19 | CCn1cc(C2CCN(C)CC2)c2cc(OS(=O)(=O)c3ccccc3)ccc21.O=C(O)C(=O)O | 127 to 130 °C
20 | CCCn1cc(C2CCN(C)CC2)c2cc(OS(=O)(=O)c3ccccc3)ccc21.Cl | 194 to 197 °C
21 | CN1CCC(c2cn(C)c3ccc(OS(=O)(=O)c4ccccc4)cc23)CC1.O=C(O)C(=O)O | 135 to 142 °C
22 | CN1CCC(c2c3n(c4ccc(OS(=O)(=O)c5ccccc5)cc24)CCC3)CC1.Cl | 202 to 204 °C
23 | CN1CCC(c2cn(CCc3ccccc3)c3ccc(OS(=O)(=O)c4ccccc4)cc23)CC1.O=C(O)C(=O)O | 208 to 212 °C
24 | Cc1cc(OS(=O)(=O)c2ccccc2)cc2c(C3CCN(C)CC3)c[nH]c12 [Example 62, Benzenesulfonic Acid 7-methyl-3-(1-methylpiperidin-4-yl)-1H-indol-5-yl Ester] | 118 °C
25 | Cc1cc(OS(=O)(=O)c2c(Cl)cccc2Cl)cc2c(C3CCN(C)CC3)c[nH]c12 [Example 63, 2,6-Dichlorobenzenesulfonic Acid 7-methyl-3-(1-methylpiperidin-4-yl)-1H-indol-5-yl Ester] | 179 °C

The next lines start with the values.

Row | melting point | Structure (SMILES)
26 | 222 to 224 °C | CN1CCC(c2cn(Cc3ccccc3F)c3ccc(OS(=O)(=O)c4ccccc4)cc23)CC1.Cl
27 | 185 to 189 °C | CCCn1cc(C2CCN(C)CC2)c2cc(OS(=O)(=O)c3c(F)cccc3F)ccc21.O=C(O)C(=O)O
28 | 149 °C | CN1CCC(c2c3n(c4ccc(OS(=O)(=O)c5c(F)cccc5F)cc24)CCC3)CC1.Cl
29 | 183 °C (dec.) | CN1CC=C(c2c[nH]c3ccc(OS(=O)(=O)c4c(F)cccc4F)cc23)CC1
30 | 186 to 190 °C | CN1CC=C(c2c[nH]c3ccc(OS(=O)(=O)c4ccccc4)cc23)CC1
31 | 209 to 212 °C | CN1CCC(c2cn(CCc3ccccc3)c3ccc(OS(=O)(=O)c4c(F)cccc4F)cc23)CC1.Cl
32 | 114 to 118 °C | CN1CCC(c2cn(Cc3ccc(F)cc3)c3ccc(OS(=O)(=O)c4c(F)cccc4F)cc23)CC1.Cl
33 | 225 to 227 °C | CN1CCC(c2cn(Cc3ccccc3)c3ccc(OS(=O)(=O)c4c(F)cccc4F)cc23)CC1.Cl
34 | 195 to 198 °C (dec.) | CN1CCC(c2cn(C)c3ccc(OS(=O)(=O)c4c(F)cccc4F)cc23)CC1.O=C(O)C(=O)O
35 | 238 °C (dec.) | CN1CCC(c2c[nH]c3ccc(OS(=O)(=O)c4ccc(NS(C)(=O)=O)cc4)cc23)CC1.Cl
36 | 161 to 165 °C | CCn1cc(C2CCN(C)CC2)c2cc(OS(=O)(=O)c3c(F)cccc3F)ccc21.O=C(O)C(=O)O
37 | 205 to 208 °C | CN1CCC(c2cn(Cc3ccccc3)c3ccc(OS(=O)(=O)c4c(F)cccc4F)cc23)CC1.O=C(O)C(=O)O
38 | 170 to 174 °C | CCCn1cc(C2=CCN(C)CC2)c2cc(OS(=O)(=O)c3ccccc3)ccc21 (as salt: hydrochloride)
39 | 138 °C (dec.) | Cc1[nH]c2ccc(OS(=O)(=O)c3c(F)cccc3F)cc2c1C1CCN(C)CC1 (as salt: hydrochloride) [Example 31, 2,6-Difluorobenzenesulfonic acid 2-methyl-3-(1-methylpiperidin-4-yl)-1H-indol-5-yl ester]
40 | 235 to 238 °C | CN1CCC(c2c[nH]c3ccc(OS(=O)(=O)c4c(F)cccc4F)cc23)CC1 [47]
41 | 202 °C | CN1CCC(c2c[nH]c3cc(F)c(OS(=O)(=O)c4c(F)cccc4F)cc23)CC1 [Example 32, 2,6-Difluorobenzenesulfonic acid 6-fluoro-3-(1-methylpiperidin-4-yl)-1H-indol-5-yl ester]
42 | 192 to 194 °C | CN1CCC(c2c[nH]c3ccc(OS(=O)(=O)c4ccccc4)cc23)CC1 [Example 34, Benzenesulfonic acid 3-(1-methylpiperidin-4-yl)-1H-indol-5-yl ester]
43 | 163 to 164 °C | CN1CCC(c2c[nH]c3ccc(OS(=O)(=O)c4ccc(F)cc4F)cc23)CC1 [Example 35, 2,4-Difluorobenzenesulfonic acid 3-(1-methylpiperidin-4-yl)-1H-indol-5-yl ester]
44 | 174 to 176 °C | CN1CCC(c2c[nH]c3ccc(OS(=O)(=O)c4ccc(I)cc4)cc23)CC1 [Example 36, 4-Iodobenzenesulfonic acid 3-(1-methylpiperidin-4-yl)-1H-indol-5-yl ester]
45 | 182 to 183.5 °C | CN1CCC(c2c[nH]c3ccc(OS(=O)(=O)c4ccc(Cl)cc4)cc23)CC1 [Example 37, 4-Chlorobenzenesulfonic acid 3-(1-methylpiperidin-4-yl)-1H-indol-5-yl ester]
46 | 186 to 187 °C | COc1ccc(S(=O)(=O)Oc2ccc3[nH]cc(C4CCN(C)CC4)c3c2)cc1 [Example 38, 4-Methoxybenzenesulfonic acid 3-(1-methylpiperidin-4-yl)-1H-indol-5-yl ester]
47 | 186 to 187 °C | Cc1ccc(S(=O)(=O)Oc2ccc3[nH]cc(C4CCN(C)CC4)c3c2)cc1 [Example 39, 4-Methylphenylsulfonic acid 3-(1-methylpiperidin-4-yl)-1H-indol-5-yl ester]
48 | 180 to 182 °C | CN1CCC(c2c[nH]c3ccc(OS(=O)(=O)c4ccccc4F)cc23)CC1 [Example 40, 2-Fluorobenzenesulfonic acid 3-(1-methylpiperidin-4-yl)-1H-indol-5-yl ester]
49 | 160 to 162 °C | CN1CCC(c2c[nH]c3ccc(OS(=O)(=O)c4ccc(F)c(F)c4F)cc23)CC1 [Example 41, 2,3,4-Trifluorobenzenesulfonic acid 3-(1-methylpiperidin-4-yl)-1H-indol-5-yl ester]
50 | 214 to 215 °C | CN1CCC(c2c[nH]c3ccc(OS(=O)(=O)c4c(F)cccc4F)cc23)CC1 [Example 42, 2,6-Difluorobenzenesulfonic acid 3-(1-methylpiperidin-4-yl)-1H-indol-5-yl ester]
51 | 171 to 172 °C | CN1CCC(c2c[nH]c3ccc(OS(=O)(=O)c4ccc([N+](=O)[O-])cc4)cc23)CC1 [Example 43, 4-Nitrobenzenesulfonic acid 3-(1-methylpiperidin-4-yl)-1H-indol-5-yl ester]
52 | 189 to 194 °C | CN1CCC(c2c[nH]c3ccc(OS(=O)(=O)c4ccccc4)cc23)CC1 [Example 45, Benzenesulfonic acid 3-(1-methylpiperidin-4-yl)-1H-indol-5-yl ester]
53 | 170 to 172 °C | CN1CCC(c2c[nH]c3ccc(OS(=O)(=O)c4ccc(F)cc4)cc23)CC1 [Example 51, 4-Fluorobenzenesulfonic acid 3-(1-methylpiperidin-4-yl)-1H-indol-5-yl ester]
54 | 139 °C | Cc1cc(OS(=O)(=O)c2c(F)cccc2F)cc2c(C3CCN(C)CC3)cn(C)c12 [Example 56, 2,6-Difluorobenzenesulfonic acid 1,7-dimethyl-3-(1-methylpiperidin-4-yl)-1H-indol-5-yl ester]
55 | 158 °C | Cc1cc(OS(=O)(=O)c2c(F)cccc2F)cc2c(C3CCN(C)CC3)cn(Cc3ccccc3)c12 [Example 59, 2,6-Difluorobenzenesulfonic acid 1-benzyl-7-methyl-3-(1-methylpiperidin-4-yl)-1H-indol-5-yl ester]

target: 5-HT6 receptor (Homo sapiens, UniProt P50406); conditions: in words; cited from earlier work
Sequence (P50406 whole entry): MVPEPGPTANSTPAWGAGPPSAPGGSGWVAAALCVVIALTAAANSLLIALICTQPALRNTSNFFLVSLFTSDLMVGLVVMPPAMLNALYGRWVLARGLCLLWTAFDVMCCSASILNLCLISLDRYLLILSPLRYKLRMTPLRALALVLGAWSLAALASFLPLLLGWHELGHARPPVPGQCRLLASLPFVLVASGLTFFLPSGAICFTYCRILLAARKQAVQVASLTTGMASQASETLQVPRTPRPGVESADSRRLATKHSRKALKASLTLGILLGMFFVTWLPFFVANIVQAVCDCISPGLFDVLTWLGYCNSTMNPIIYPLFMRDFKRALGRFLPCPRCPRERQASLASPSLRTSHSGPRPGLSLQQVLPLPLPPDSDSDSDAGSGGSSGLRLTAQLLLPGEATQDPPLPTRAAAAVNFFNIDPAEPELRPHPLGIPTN

Row | Structure (SMILES) | affinity for the 5-HT6 receptor
56 | O=C(CCCN1CCC(O)(c2ccc(Cl)cc2)CC1)c1ccc(F)cc1 [haloperidol] | do not have significant affinity
57 | Cc1nc2n(c(=O)c1CCN1CCC(c3noc4cc(F)ccc34)CC1)CCCC2 [risperidone] | do not have significant affinity
